Measurements: patent publication US20100048594A1, “USE OF CYTOHESIN INHIBITORS FOR CHEMICALLY INDUCING LONGEVITY” (RHEINISCHE FRIEDRICH-WILHELMS UNIVERSITAT, priority 2006, published 2010)

Legend:
[1] = tested on: Drosophila eukaryotic initiation factor 4E binding protein (d4EBP, Thor); test: Transcription rate of insulin target gene d4EBP in insulin-treated Drosophila S2 cells (real-time PCR); assay type: cell-based; details: 100 μM compound, 10 μg/ml human insulin, insulin alone less than 35%
Method: Drosophila Schneider 2 (S2) cells were cultivated in Schneider's Medium (PAN company) with 10% heat-inactivated fetal calf serum (FCS). 2×10^6 cells were drawn into 35 mm vessels at 25° C. to 80% confluence, washed one time in phosphate buffered saline solution (1×PBS, Gibco), and transferred for twelve hours to Schneider's Medium, without FCS. The cells were then preincubated for two hours with 0.5% DMSO containing Schneider's Medium, without FCS, with or without the compound according to formula (9) or formula (25), with the final concentrations of the compounds according to formulas (9) and (25) being 1 μM, 10 μM and 100 μM. This was followed by a four-hour stimulation with 10 μg/ml human insulin (Sigma).
After washing the cells two times with PBS, total RNA was then isolated from the cells using the NucleoSpin RNA II Kit (Macherey & Nagel), according to the manufacturer's instructions. The first strain cDNA synthesis was performed with every 500 ng RNA, using the QuantiTect Reverse Transcription Kit (Qiagen), according to the manufacturer's instructions. […]
The activity of the insulin signaling pathway was determined from the transcription rate of the insulin target gene Drosophila eukaryotic initiation factor 4E binding protein (d4EBP, Thor). […]

[2] = tested on: Drosophila melanogaster flies; test: Lifespan of adult Drosophila melanogaster flies fed with compound (Kaplan-Meier analysis); assay type: in vivo; details: 10 μM compound in food; for Average Lifespan: ±margin of error
Method: The experiments were conducted on isogenic flies (Drosophila melanogaster) of the genotype white^1118, also called white^− or w^−, and mutants (w^1118; step^k08110/step^SH0323) (strain # 10770 from the public Bloomington Stock Center, genotype: step^k08110/CyO, URL http://flybase.bio.indiana.edu/reports/FBstOO10770.html; strain # FBst0103734 from the public Szeged Stock Center, genotype: step^SH0323/CyO, URL http://flybase.bio.indiana.edu/reports/FBst0103734.html), in which the Drosophila cytohesin steppke is mutated and therefore defective.
By crossing the two steppke alleles k08110 and SH0323 eight times with whites flies, an isogenic genetic background is produced, which permits a comparison of the lifespans between the genotypes of the type white^1118 and the mutants (w^1118; step^k08110/step^SH0323). The average lifespan of the wild type was approximately 25 days, while that of the mutants (w^1118; step^k08110/step^SH0323) was approximately 30 days.
To produce the special food, 32.5 g autolysed yeast (Fluka (Catalog No. 73145)) and 10 g agar (Difco (Catalog No. 281230)) were mixed with 300 ml water (demineralized, Roth (Catalog No. 3175)) and autoclaved at 120° C. for 20 minutes. The solution was cooled to 60° C., and 32.5 g α-D(+)-glucose monohydrate (Roth (Catalog No. 6887)) were added under stirring. 15 ml 10% (w/v) p-hydroxybenzoic acid methylester (Sigma (Catalog No. H3647)) solution dissolved in 70% (v/v) ethanol (Roth (Catalog No. 9065)) and 1.35 ml dimethylsulfoxide (DMSO, Roth (Catalog No. A994)) were then added. Water was then added to this basic solution to a volume of 450 ml, which was then held at a temperature of 60° C. For the control food, 50 ml of a 0.7% (v/v) DMSO solution in water were produced. For the food containing the compounds according to formulas (9) or (25), 0.2 ml of a 25 mM solution of the compounds according to formula (9) or (25) in 100% DMSO were added to 49.8 ml of a 0.3012% DMSO solution in water.
These 50 ml of the control solutions and the solutions containing the compounds according to formula (9) or (25) were each mixed with 450 ml of the basic solution, and were placed in 4 ml amounts in polystyrene containers (height 9.5 cm, diameter 2.4 cm, sealed with cotton wadding) to maintain the flies. After 24 hours, the cooled containers were sealed with cotton wadding and stored at 4° C.
The final concentration of the food components in the control food was 6.5% (w/v) autolysed yeast, 6.5% (w/v) α-D(+)-glucose monohydrate, 2% (w/v) agar, 0.3% (w/v) p-hydroxybenzoic acid methylester, 2.1% ethanol (v/v), 0.34% (v/v) DMSO.
(§1) The final concentration of the food components in the food containing the compound according to formula (9) was 6.5% (w/v) autolysed yeast, 6.5% (w/v) α-D(+)-glucose monohydrate, 2% (w/v) agar, 0.3% (w/v) p-hydroxybenzoic acid methylester, 2.1% ethanol (v/v), 0.34% (v/v) DMSO, 10 μM compound according to formula (9).
as §1, with “(25)” for “(9)”, “(25).” for “(9).”
The larvae were maintained on standard fly food containing 1.1% (w/v) brewer's yeast (“Gewürzmühle Brecht” company), 5.43% (w/v) cornmeal, 0.53% (w/v) filamentous agar (“Gewürzmühle Brecht” company), 6.6% (v/v) sugar beet syrup (Grafschafter), 1.3% (v/v) ethanol (Roth company), 0.13% (w/v) p-hydroxybenzoic acid methylester (Sigma).
24 hours after emergence of the imagines, the adult flies, females and males were separated under a brief CO2 anesthetization lasting less than 2 minutes. During the 24 hours after emergence, the animals were fed using standard fly food. […]

COc1nc(-c2ccc(C(C)(C)C)cc2)n(-c2ccc(NC(=O)CSc3ccccc3)cc2)n1 [Compound (25)]
transcription rate of d4EBP as % of that of the untreated control groups [1]: more than 95%
change in lifespan ([2]; control animals and mutants): no significant change
Average Lifespan ([2]; genotype w^1118, female flies): 25.0 (±0.7) Days
Average Lifespan ([2]; genotype w^1118, step^k08110/step^SH0323 mutants, female flies): 29.3 (±0.7) Days
